Tested on: men with oligoasthenozoospermia
Experiment: placebo-controlled randomized study of SG1002 compared to resveratrol in men with oligoasthenozoospermia
Assay type: in vivo
Conditions: SG1002 500 mg daily, resveratrol 50 mg daily, 54 men
Description: There was one placebo-controlled randomized study of SG1002,500 mg daily compared to resveratrol 50 mg daily in 54 men with oligoasthenozoospermia. Men treated with SG1002 had increased sperm concentration, motility and motile forms recovery compared to those treated with placebo. Resveratrol had no effect on any of these parameters. During the study, three men in the SG1002 arm withdrew: one due to excessive flatulence and nausea, one due to “smelly” sweating, and one for convenience.

Oc1ccc(C=Cc2cc(O)cc(O)c2)cc1 [Resveratrol, resveratrol]
no effect: motile forms recovery | sperm concentration | sperm motility

— patent US20170087180A1, “METHODS AND COMPOSITIONS FOR TREATING NITRIC OXIDE DEFICIENCY DISORDERS AND RELATED CONDITIONS” (Sulfagenix, Inc., priority 2014, published 2017)
